This is an account of results in patent US9512139B2, “Conformationally constrained, fully synthetic macrocyclic compounds” (POLYPHOR AG, priority 2009, dated 2016).

Some results are limits rather than exact numbers.

A short description of data set [1]: in vitro. The data set is classed as in vitro ADME, mouse. To be noted: both, CD-1, mouse, plasma, 10 µM; for Plasma Stability 240 min mouse [% remain.]: 4 h.
Method: (§5) Example compounds were dissolved in DMSO/H2O 90:10 to a final concentration of 10 mM for plasma stability determination and metabolic stability determination.
(§6) Human plasma (3-5 donors, Blutspendedienst SRK, Basel) and CD-1 mouse plasma (mixed gender pool >50 animals, Innovative Research, CA, USA) are both sodium citrate stabilized. The assay is performed in triplicates at 10 μM compound concentration and 37° C. Samples are taken at 0, 15, 60, and 240 minutes and stopped by precipitation with 2 volumes of acetonitrile. The supernatant is collected, evaporated and reconstituted in a 5% acetonitrile solution to be analyzed by HPLC/MS/MS. The resulting peak area counts are expressed in percent of the 0 value and used to determine the endpoint stability in % and the half life in minutes. In order to monitor assay integrity the degradation of propantheline is assayed with every experimental set.
Data set [2] in a line: Metabolic stability assay, CD-1 mouse microsomes. The class given is in vitro ADME. Particulars: CD-1, mouse, microsomes; for Metabolic Stability T½ [min] mouse / Metabolic Stability 60 min mouse [% remain.]: both, 10 µM; for Metabolic Stability 60 min mouse [% remain.]: 1 h. The protocol: (§1) 4. Plasma and Metabolic Stability Assays
(§2) The assays were conducted according to literature precedents (F. P. Guengerich, Analysis and Characterization of Enzymes; in: Principles and Methods of Toxicology; A. W. Hayes (Ed.) Raven Press: New York, 1989, 777-813; R. Singh et al., In vitro metabolism of a potent HIV-protease inhibitor (141W94) using rat, monkey and human liver S9, Rapid Commun. Mass Spectrom. 1996, 10, 1019-1026).
(§3) Metabolic Stability Assay
(§4) Microsomes from a human 50 donor mixed gender pool and 1:1 mixtures of microsomes from CD-1 mouse single-gender pools are purchased from Celsis (Belgium). The enzymatic reaction is performed in a buffer containing an NADPH regeneration system and microsomes with the following end concentrations: 100 mM potassium phosphate buffer (all from Sigma), 1 mg/mL glucose-6-phosphate, 1 mg/mL β-nicotinamide adenine dinucleotide phosphate (NADP), 0.65 mg/mL magnesium chloride, 0.8 units/mL of glucose-6-phosphate dehydrogenase (prediluted with 5 mM citrate buffer), 10 μM compound and 1 mg/ml microsomal protein. Compounds are incubated at 37° C. in duplicates and samples are taken after 0, 20 and 60 minutes. After acetonitrile precipitation (2 volumes) and HPLC/MS/MS analysis metabolic turnover is expressed in % of the initial 0 minutes value and half life T½ (min) is calculated. Verapamil for human and propranolol for mouse are used as reference and are assayed with every experimental set.

A short description of data set [3]: in vitro. Particulars: human, plasma, 10 µM; for Plasma Stability 240 min hum [% remain.]: 4 h. The class given is in vitro ADME, human.
Method: as §5, §6
Data set [4] can be described thus: Metabolic stability assay, human microsomes. To be noted: human, microsomes; for Metabolic Stability T½ [min] hum / Metabolic Stability 60 min hum [% remain.]: both, 10 µM; for Metabolic Stability 60 min hum [% remain.]: 1 h. The data set is classed as in vitro ADME. The protocol: as §1, §2, §3, §4
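For Plasma Stability 240 min mouse [% remain.] in this document: sodium citrate stabilized mouse plasma, parent compound quantified by HPLC/MS/MS relative to its peak area at time zero, run in triplicate.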
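For Plasma Stability T½ [min] mouse in this document: sodium citrate stabilized mouse plasma, parent compound quantified by HPLC/MS/MS relative to its peak area at time zero, run in triplicate.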

Take `CN1CC(=O)N2C[C@@H](N)C[C@H]2COc2ccc(F)cc2C(=O)N(C)[C@@H](C(=O)NCc2ccc3ccccc3c2)CCC1=O` [Ex. 91, (2S,11R,19aS)-2-amino-15-fluoro-7,12-dimethyl-N-(2-naphthylmethyl)-5,8,13-trioxo-2,3,6,7,8,9,10,11,12,13,19,19a-dodecahydro-1H,5H-pyrrolo[2,1-c][1,4,7,12] benzoxatriazacyclopentadecine-11-carboxamide]: in the data set “in vitro [1]”, the Plasma Stability T½ [min] mouse is greater than 240 min and the “Plasma Stability 240 min mouse [% remain.]” value is on record as 88 % remain. Further, in data set [2], the Metabolic Stability T½ [min] mouse is greater than 60 min and the “Metabolic Stability 60 min mouse [% remain.]” value was determined as 95 % remain. Moreover, in the data set “in vitro [3]”, the Plasma Stability T½ [min] hum was greater than 240 min and the “Plasma Stability 240 min hum [% remain.]” value amounted to 96 % remain. For the same compound, in data set [4], the Metabolic Stability T½ [min] hum was greater than 60 min and the “Metabolic Stability 60 min hum [% remain.]” value is listed as 91 % remain.

With `CN1CC(=O)N2C[C@H](NC(=O)CN3CCCC3)C[C@H]2COc2ccc(cc2)C(=O)N(C)[C@H](C(=O)NCc2ccncc2)CCC1=O` [Ex. 266, (4S,6R,15S)-11,16-dimethyl-9,12,17-trioxo-N-(4-pyridinylmethyl)-6-{[2-(1-pyrrolidinyl)acetyl]amino}-2-oxa-8,11,16-triazatricyclo[16.2.2.0^4,8]docosa-1(20),18,21-triene-15-carboxamide], in the data set “in vitro [1]”, the Plasma Stability T½ [min] mouse is greater than 240 min and the “Plasma Stability 240 min mouse [% remain.]” value turned out to be 74 % remain. Besides, in data set [2], the Metabolic Stability T½ [min] mouse is greater than 60 min and the “Metabolic Stability 60 min mouse [% remain.]” value is recorded as 98 % remain. For the same compound, in the data set “in vitro [3]”, the Plasma Stability T½ [min] hum is greater than 240 min and the “Plasma Stability 240 min hum [% remain.]” value came to 92 % remain. In addition, in data set [4], the Metabolic Stability T½ [min] hum was greater than 60 min and the “Metabolic Stability 60 min hum [% remain.]” value was 100 % remain.

With `CC(=O)N1CCN([C@H]2CCCN(C)C(=O)c3cccc(c3)OC[C@@H]3C[C@H](O)CN3C2=O)CC1` [Ex. 582, (4S,6S,10S)-10-(4-acetylpiperazino)-6-hydroxy-14-methyl-2-oxa-8,14-diazatricyclo[14.3.1.0^4,8]icosa-1(20),16,18-triene-9,15-dione], in the data set “in vitro [1]”, the Plasma Stability T½ [min] mouse was greater than 240 min and the “Plasma Stability 240 min mouse [% remain.]” value was 96 % remain. In data set [2], the Metabolic Stability T½ [min] mouse is greater than 60 min and the “Metabolic Stability 60 min mouse [% remain.]” value was 98 % remain. Besides, in the data set “in vitro [3]”, the Plasma Stability T½ [min] hum was greater than 240 min and the “Plasma Stability 240 min hum [% remain.]” value is listed as 100 % remain. In data set [4], the Metabolic Stability T½ [min] hum is greater than 60 min and the “Metabolic Stability 60 min hum [% remain.]” value was 100 % remain.

On to `CCCCC(=O)N[C@H]1C[C@H]2COc3ccc(F)cc3C(=O)N(C)[C@@H](C(=O)NCc3ccc4ccccc4c3)CCC(=O)N(C)CC(=O)N2C1` [Ex. 103, (2S,11R,19aS)-15-fluoro-7,12-dimethyl-N-(2-naphthylmethyl)-5,8,13-trioxo-2-(pentanoylamino)-2,3,6,7,8,9, 10,11,12,13,19,19a-dodecahydro-1H,5H-pyrrolo[2,1-c][1,4,7,12] benzoxatriazacyclopentadecine-11-carboxamide], for which the “Plasma Stability 240 min mouse [% remain.]” value in the data set “in vitro [1]” was found to be 75 % remain. Moreover, the half-life at 10 µM was found to be 0.6 h in data set [2] (both sexes) and 0.583 h in data set [4] (both sexes). Moreover, the “Metabolic Stability 60 min mouse [% remain.]” value in data set [2] is recorded as 25 % remain. Further, the “Plasma Stability 240 min hum [% remain.]” value in the data set “in vitro [3]” is reported as 97 % remain. Moreover, the “Metabolic Stability 60 min hum [% remain.]” value in data set [4] was determined as 22 % remain.
